The source of these data is patent publication US8088761B2, “Enzyme inhibitors” (Cancer Research Technology Limited, priority 2005, dated 2012).

In one test the target is T1, Aurora-A (Homo sapiens, UniProt O14965).
T1 sequence (O14965 1-403): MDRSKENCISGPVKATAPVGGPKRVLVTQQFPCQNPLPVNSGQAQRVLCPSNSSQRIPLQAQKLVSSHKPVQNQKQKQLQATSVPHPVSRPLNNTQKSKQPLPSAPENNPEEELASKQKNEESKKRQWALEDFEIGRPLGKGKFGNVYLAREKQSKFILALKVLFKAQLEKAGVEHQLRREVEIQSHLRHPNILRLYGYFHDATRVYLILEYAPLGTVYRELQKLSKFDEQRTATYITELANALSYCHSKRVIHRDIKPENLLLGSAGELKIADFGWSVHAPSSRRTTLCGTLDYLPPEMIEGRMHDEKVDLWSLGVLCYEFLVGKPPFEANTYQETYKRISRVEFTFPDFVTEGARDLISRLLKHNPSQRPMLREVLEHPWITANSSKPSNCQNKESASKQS
Briefly: Flashplate Aurora A enzyme inhibition assay. The class given is biochemical. The protocol: Flashplate® Assay for Identification and Evaluation of Aurora-A Inhibitors
On this assay 384-well Basic Flashplate® (SMP400E, PerkinElmer) as solid assay platform was used. The plates were coated overnight at 4° C. with […] at 100 μg/ml in PBS buffer and used after being washed twice with PBS. 5 μl of compound in 2% DMSO was added to each well followed by 15 μl master mix of kinase buffer (50 mM Tris pH 7.5, 10 mM NaCl, 2.5 mM MgCl2, 1 mM […], 20 μM ATP, and 0.025 μCi/μl ^33P-ATP). Finally, 250 ng per well of Aurora-A enzyme was added. The plate was shaken for approximately 2 min on a flat-bed plate shaker (Wellmix, Denley, UK) and incubated for 2 hours at room temperature. The reaction was stopped by washing the plate twice on a 16-pin wash (ELX50 BioTek Instruments Ltd., Northstar, Bedford, UK) with 10 mM sodium pyrophosphate. The plate was then read on a TopCount-NX™ (PerkinElmer Life Sciences UK Ltd., Hounslow, UK).

In a further test the test system is HCT116 cells. Briefly: Cell viability assay (MTT) in HCT116 cell line. The format is cell-based. The note with it: Homo sapiens, HCT-116, 72 hrs, IC50 range, read-out: HCT116 cell growth inhibition. As for the experimental part:
Cell Viability Assay: Determination of IC50 of Aurora Inhibitors in HCT116 Cell Line Using MTT Assay. The effects of compounds of the Examples on cellular proliferation were determined using the MTT assay according to manufacturer's instructions (Sigma). Briefly, the human colon tumour cells HCT116, were seeded in triplicate into 96-well plates at 2500 cells/well 24 hours before treatment with a range of concentrations of Aurora inhibitors (0-50 μM). After 72 hrs, 15 μl/well of 0.5% 3-(4,5-dimethylthiazol-2-yl)-2,5-diphenyltetrazolium bromide (MTT) was added to the cells for 4 hrs at 37° C., the dye-stained viable cells were extracted by adding 150 μl/well of dimethyl sulphoxide (DMSO). […] The IC50 was calculated using the Prism software.

Where [1] appears, read: Flashplate assay, IC50 range, read-out: Aurora-A inhibition.

Where two headings read alike, the source gives them in different places.

For the compound `NCc1ccc(-c2nc3c(N4CCN(CC(=O)Nc5nccs5)CC4)c(Br)cnc3[nH]2)cc1` [Example 7, 2-{4-[2-(4-Aminomethyl-phenyl)-6-bromo-3H-imidazo[4,5-b]pyridin-7-yl]-piperazin-1-yl}-N-thiazol-2-yl-acetamide], the IC50 was < 0.5 µM on Aurora-A (setting [1]) and 0.5 to 2 µM in the test with HCT116 cells.
Take `CN(C)Cc1ccc(-c2nc3c(N4CCN(CC(=O)Nc5nccs5)CC4)c(Br)cnc3[nH]2)cc1` [Example 8, 2-{4-[6-Bromo-2-(4-dimethylaminomethyl-phenyl)-3H-imidazo[4,5-b]pyridin-7-yl]-piperazin-1-yl}-N-thiazol-2-yl-acetamide]: the IC50 on Aurora-A (setting [1]) is < 0.5 µM; in the test on HCT116 cells, 0.5 to 2 µM.
With `O=C(CN1CCN(c2c(Br)cnc3[nH]cnc23)CC1)Nc1nccs1` [Example 10, 2-[4-(6-Bromo-3H-imidazo[4,5-b]pyridin-7-yl)-piperazin-1-yl]-N-thiazol-2-yl-acetamide], the figures for the IC50 on Aurora-A (setting [1]) and in the test on HCT116 cells were 0.5 to 2 µM and 2 to 50 µM, respectively.
Regarding `CC(C)(C)OC(=O)NCc1cccc(-c2nc3c(N4CCN(CC(=O)Nc5nccs5)CC4)c(Br)cnc3[nH]2)c1` [Example 11, (3-{6-Bromo-7-[4-(thiazol-2-ylcarbamoylmethyl)-piperazin-1-yl]-3H-imidazo[4,5-b]pyridin-2-yl}-benzyl)-carbamic acid tert-butyl ester], the IC50 is < 0.5 µM on Aurora-A (setting [1]) and 0.5 to 2 µM in the test on HCT116 cells.
As to `NCc1cccc(-c2nc3c(N4CCN(CC(=O)Nc5nccs5)CC4)c(Br)cnc3[nH]2)c1` [Example 12, 2-{4-[2-(3-Aminomethyl-phenyl)-6-bromo-3H-imidazo[4,5-b]pyridin-7-yl]-piperazin-1-yl}-N-thiazol-2-yl-acetamide], the IC50 at Aurora-A (setting [1]) is < 0.5 µM; in the test with HCT116 cells it was 2 to 50 µM.
On the same counts, the results for `CN(C)Cc1cccc(-c2nc3c(N4CCN(CC(=O)Nc5nccs5)CC4)c(Br)cnc3[nH]2)c1` [Example 13, 2-{4-[6-Bromo-2-(3-dimethylaminomethyl-phenyl)-3H-imidazo[4,5-b]pyridin-7-yl]-piperazin-1-yl}-N-thiazol-2-yl-acetamide] are < 0.5 µM and 0.5 to 2 µM.
With `CC(c1ccccc1)N1CCN(c2c(Cl)cnc3[nH]c(-c4ccc(N(C)C)cc4)nc23)CC1` (stereo not drawn) [Example 17, 4-(6-chloro-7-(4-(1-phenylethyl)piperazin-1-yl)-3H-imidazo[4,5-b]pyridin-2-yl)-N,N-dimethylaniline], the IC50 on Aurora-A (setting [1]) was < 0.5 µM; in the test on HCT116 cells, 0.5 to 2 µM.
As for `COc1ccc(-c2nc3c(N4CCN(CC(=O)Nc5nccs5)CC4)c(Cl)cnc3[nH]2)cc1` [Example 19, 2-(4-(6-Chloro-2-(4-methoxyphenyl)-3H-imidazo[4,5-b]pyridin-7-yl)piperazin-1-yl)-N-(thiazol-2-yl)acetamide], the IC50 on Aurora-A (setting [1]) was < 0.5 µM; in the test with HCT116 cells it was 0.5 to 2 µM.
Regarding `CN(C)c1ccc(-c2nc3c(N4CCN(CC(=O)Nc5ccccc5)CC4)c(Br)cnc3[nH]2)cc1` [Example 20, 2-(4-(6-Bromo-2-(4-(dimethylamino)phenyl)-3H-imidazo[4,5-b]pyridin-7-yl)piperazin-1-yl)-N-phenylacetamide], the IC50 on Aurora-A (setting [1]) is < 0.5 µM; in the test on HCT116 cells it was 0.5 to 2 µM.
For `CN(C)c1ccc(-c2nc3c(N4CCN(CC(=O)Nc5cccnc5)CC4)c(Br)cnc3[nH]2)cc1` [Example 21, 2-(4-(6-Bromo-2-(4-(dimethylamino)phenyl)-3H-imidazo[4,5-b]pyridin-7-yl)piperazin-1-yl)-N-(pyridin-3-yl)acetamide], the IC50 on Aurora-A (setting [1]) is < 0.5 µM; in the test with HCT116 cells it was 0.5 to 2 µM.
On the same counts, the results for `CN(C)c1ccc(-c2nc3c(N4CCN(CC(=O)Nc5ccccc5)CC4)c(Cl)cnc3[nH]2)cc1` [Example 22, 2-(4-(6-Chloro-2-(4-(dimethylamino)phenyl)-3H-imidazo[4,5-b]pyridin-7-yl)piperazin-1-yl)-N-phenylacetamide] are < 0.5 µM and 2 to 50 µM.
In the case of `Cc1csc(NC(=O)CN2CCN(c3c(Cl)cnc4[nH]c(-c5ccc(N(C)C)cc5)nc34)CC2)n1` [Example 23, 2-(4-(6-Chloro-2-(4-(dimethylamino)phenyl)-3H-imidazo[4,5-b]pyridin-7-yl)piperazin-1-yl)-N-(4-methylthiazol-2-yl)acetamide], the IC50 is < 0.5 µM at Aurora-A (setting [1]) and 0.5 to 2 µM in the test with HCT116 cells.
Regarding `CN(C)c1ccc(-c2nc3c(N4CCN(CC(=O)Nc5cccc(Cl)c5)CC4)c(Cl)cnc3[nH]2)cc1` [Example 24, 2-(4-(6-Chloro-2-(4-(dimethylamino)phenyl)-3H-imidazo[4,5-b]pyridin-7-yl)piperazin-1-yl)-N-(3-chlorophenyl)acetamide], the values for the IC50 at Aurora-A (setting [1]) and in the test on HCT116 cells were < 0.5 µM and 2 to 50 µM, respectively.
Consider `CN(C)c1ccc(-c2nc3c(N4CCN(CC(=O)N5CCCC5)CC4)c(Br)cnc3[nH]2)cc1` [Example 25, 2-(4-(6-Bromo-2-(4-(dimethylamino)phenyl)-3H-imidazo[4,5-b]pyridin-7-yl)piperazin-1-yl)-1-(pyrrolidin-1-yl)ethanone], for which the IC50 on Aurora-A (setting [1]) was < 0.5 µM; in the test on HCT116 cells it was 2 to 50 µM.
Turning to `CN(C)c1ccc(-c2nc3c(N4CCN(Cc5ccc(Cl)cc5)CC4)c(Br)cnc3[nH]2)cc1` [Example 26, 4-(6-Bromo-7-(4-(4-chlorobenzyl)piperazin-1-yl)-3H-imidazo[4,5-b]pyridin-2-yl)-N,N-dimethylaniline], the IC50 at Aurora-A (setting [1]) and in the test on HCT116 cells was < 0.5 µM in each case.
With `CN(C)c1ccc(-c2nc3c(N4CCN(Cc5cccnc5)CC4)c(Br)cnc3[nH]2)cc1` [Example 27, 4-(6-Bromo-7-(4-(pyridin-3-ylmethyl)piperazin-1-yl)-3H-imidazo[4,5-b]pyridin-2-yl)-N,N-dimethylaniline], the figures for the IC50 on Aurora-A (setting [1]) and in the test on HCT116 cells were < 0.5 µM and 0.5 to 2 µM, respectively.
Turning to `COc1ccc(-c2nc3c(N4CCN(Cc5cccnc5)CC4)c(Br)cnc3[nH]2)cc1` [Example 28, 6-Bromo-2-(4-methoxyphenyl)-7-(4-(pyridin-3-ylmethyl)piperazin-1-yl)-3H-imidazo[4,5-b]pyridine], the IC50 is < 0.5 µM on Aurora-A (setting [1]) and 0.5 to 2 µM with HCT116 cells.
Take `COc1cccc(-c2nc3c(N4CCN(CC(=O)Nc5nccs5)CC4)c(Br)cnc3[nH]2)c1` [Example 29]: the IC50 at Aurora-A (setting [1]) is < 0.5 µM; with HCT116 cells it was 0.5 to 2 µM.
In the case of `CN(C)c1ccc(-c2nc3c(N4CCN(Cc5ccccn5)CC4)c(Br)cnc3[nH]2)cc1` [Example 30, 4-(6-Bromo-7-(4-(pyridin-2-ylmethyl)piperazin-1-yl)-3H-imidazo[4,5-b]pyridin-2-yl)-N,N-dimethylaniline], the IC50 at Aurora-A (setting [1]) is < 0.5 µM; with HCT116 cells it was 2 to 50 µM.
Regarding `CN(C)c1ccc(-c2nc3c(N4CCN(Cc5ccncc5)CC4)c(Br)cnc3[nH]2)cc1` [Example 31, 4-(6-Bromo-7-(4-(pyridin-4-ylmethyl)piperazin-1-yl)-3H-imidazo[4,5-b]pyridin-2-yl)-N,N-dimethylaniline], the results for the IC50 on Aurora-A (setting [1]) and in the test with HCT116 cells were < 0.5 µM and 0.5 to 2 µM, respectively.
For the compound `CC(C)CN1CCN(c2c(Br)cnc3[nH]c(-c4ccc(N(C)C)cc4)nc23)CC1` [Example 32, 4-(6-Bromo-7-(4-isobutylpiperazin-1-yl)-3H-imidazo[4,5-b]pyridin-2-yl)-N,N-dimethylaniline], the IC50 on Aurora-A was < 0.5 µM; with HCT116 cells, 0.5 to 2 µM.
As to `CN(C)c1ccc(-c2nc3c(N4CCCN(Cc5ccc(F)cc5)CC4)c(Br)cnc3[nH]2)cc1` [Example 34, 4-(6-Bromo-7-(4-(4-fluorobenzyl)-1,4-diazepan-1-yl)-3H-imidazo[4,5-b]pyridin-2-yl)-N,N-dimethylaniline], the IC50 at Aurora-A (setting [1]) was < 0.5 µM; in the test on HCT116 cells, 2 to 50 µM.
On to `COc1ccc(-c2nc3c(N4CCN(Cc5ccncc5)CC4)c(Cl)cnc3[nH]2)cc1` [Example 35, 6-Chloro-2-(4-methoxyphenyl)-7-(4-(pyridin-4-ylmethyl)piperazin-1-yl)-3H-imidazo[4,5-b]pyridine], for which the IC50 at Aurora-A (setting [1]) is < 0.5 µM; in the test with HCT116 cells, 0.5 to 2 µM.
On the same counts, the results for `COc1ccc(-c2nc3c(N4CCN(CC(C)C)CC4)c(Cl)cnc3[nH]2)cc1` [Example 36, 6-Chloro-7-(4-isobutylpiperazin-1-yl)-2-(4-methoxyphenyl)-3H-imidazo[4,5-b]pyridine] are < 0.5 µM and < 0.5 µM.
